{"source": "patent US20220142159A1", "about": "“A METHOD AND COMPOSITION FOR INSECT REPELLENCY USING AVERSIVE AGENT” (UPL LTD, priority 2019, published 2022)", "key": {"average person": {"tested_on": "average person", "details": "cited from earlier work"}, "[1]": {"details": "in vivo; cited from earlier work"}, "Nilgai, deer": {"tested_on": "Nilgai, deer", "assay": "Observed repellence of vermin mammal species", "assay_type": "in vivo", "details": "because of its bitterness"}}}
{"compound": "CC[N+](CC)(CC(=O)Nc1c(C)cccc1C)Cc1ccccc1.O=C([O-])c1ccccc1", "note": "[Denatonium benzoate, phenylmethyl-[2-[(2,6-dimethylphenyl)amino]-2-oxoethyl]-diethylammonium benzoate]", "values": [{"measurement": "generally recognized bitter taste", "setting": "average person; level of recognised bitter taste", "result": 50, "unit": "ppb"}, {"measurement": "can be detected by the average person", "setting": "average person; taste detection level", "result": 10, "unit": "ppb"}, {"measurement": "human safety in clinical trials", "setting": "[1]", "result": "extremely human safe"}, {"measurement": "repellence of vermin mammals", "setting": "Nilgai, deer", "result": "effectively repelled"}]}
